# Experiments:
# [1] = tested on: Neuroblastoma SHSY5Y (NB) cells; test: Protection from oxidative stress in vitro, neutral red survival assay; type: cell-based; details: compound at 0.1 mM
# Procedure: Protection from oxidative stress in vitro: Neuroblastoma SHSY5Y (NB) cells were maintained in Dulbeco's Modified Eagle's Medium (DMEM), supplemented with 8% FCS and 8% horse serum, penicillin (25 μg/ml), streptomycin (25 μg/ml), 2 mM L-glutamine and 400 μg/ml G418 (Gibco/BRL). For protection experiments cells were subcultured (in 2% serum) to poly-L-lysine-coated 96-well microtiter plates (Nunc), 100 μl of 5×10^5 cells/ml, CEA was applied to the cells in each well and 4 hours later DA, L-dopa (levodopa), 6-OHDA and MPP+ were added for 24 hours.
# Survival was assayed by adding neutral red (0.34%, Sigma) to cells in DCCM-1 medium (0.1 ml/well, Bet-Haemek) and incubation for 2 hour at 37° C. The cells were then washed with cold PBS containing 10 mM MgCl2 and the dye was dissolved in 50% ethanol in 50% Somerson buffer (70 mM sodium citrate, 30 mM citric acid, 0.1 N HCl). ELISA reader (590 nm) was used to measure the remaining color intensity.
# [2] = Crossing the blood-brain-barrier: compound J level in brain extracts by fluorescent labeling and HPLC; type: in vivo, C57BL/6J mice; details: IP injection 0.25-4 mg, brain extracts 15 min later
# Procedure: Detection of compound j (referred to in this Example also as CEA) was established using high performance liquid chromatography (HPLC). To this end, CEA was treated with a fluorescent thiolyte reagent (monobromobimane reagent) and analyzed on an HPLC column.
# Crossing the blood-brain-barrier: In vivo experiments were carried out on C57BL/6J mice (15 grams) injected IP with compound J. After incubation (15 min, 60 min or 4 hours) the mice were anesthetized with ether and blood samples were drawn. Then mice underwent perfusion with 50 ml of saline, injected into the right ventricle. The levels of compound I in the brain and in the plasma were detected by selective fluorescent labeling using high performance liquid chromatography (HPLC).
# Increasing amounts of compound J were injected IP and 15 min later, mice were perfused with saline and compound J levels in the brain extracts were determined by HPLC chromatography (FIG. 5b), as compared to a control, pure, uninjected compound J (FIG. 5a).
# GSH = test: Brain GSH levels after IP injection of compound J (HPLC); type: in vivo, C57BL/6J mice; details: brain extract after IP injection
# MOG-induced EAE = test: Prevention of MOG-induced experimental autoimmune encephalomyelitis (EAE); type: in vivo, C3H.SW female mice; details: 200 mg/kg IP twice a day plus 300 mg/kg in drinking water
# Procedure: EAE was induced in C3H.SW female mice (4-6 weeks old, Harlen, Rehovot, Israel) by immunization with the peptide encompassing amino acids 35-55 of rat myelin oligodendrocyte glycoprotein (MOG). Synthesis was carried out by the Weizmann Institute Synthesis Unit, using a solid-phase technique on a peptide synthesizer (Applied Biosystems Inc., Foster City, Calif. City). Mice were injected subcutaneously at one site in the flank with a 200 μl emulsion containing 75 μg MOG peptide in complete Freund's adjuvant (CFA). An identical booster immunization was given at one site of the other flank one week later. Mice (n=16) were injected intraperitonealy with Compound J (200 mg/kg) twice a day and in addition, were given Compound J orally in the drinking water (300 mg/kg) on day 1 of the MOG injection and for additional 35 days post injection. Control mice (n=16) were injected twice a day with 200 mg of saline for the same time period. 0=no clinical symptom's; 1=loss of tail tonicity; 2=partial hind limb paralysis; 3=complete hind limb paralysis; 4=paralysis of four limbs; 5=total paralysis; 6=death.
# [3] = in vivo; cited from earlier work
# [4] = tested on: endogenous reduced glutathione (GSH); test: In vivo antioxidation: striatum/serum endogenous GSH after IP injection of compound A; parameters: species or system Balb/c mice; details: injected IP, 100-300 mg/kg, three hours post injection
# Procedure: With reference now to FIG. 3. To this end, three groups of two months old Balb/c mice containing two animals in each group were injected intraperitonealy (IP) with 100-300 mg/kg body weight of compound A. Blood samples were drawn from the tail three hours post injection and then the animals were sacrificed and either the corpus striatum or the whole brain were removed and analyzed for GSH levels.
# GSH levels were determined using the experimental procedures as described hereinbelow and/or the GSH-400 kit (Oxis International, Inc.).
# Preparation of brain homogenates: Animals were rapidly killed and exsanguinated to remove excess blood from the brain. The brain of each animal was rinsed in a beaker containing water, lightly blotted to dry and were weighted. The striatums were transferred into a hand-homogenizer tube and each was homogenized using a constant number (e.g., 20) of up and down strokes of the hand-homogenizer pestle. Each of the homogenates was poured into a centrifuge tube and centrifuged for 10,000×g for 5 min. The supernatant was used for GSH determination as follows.
# GSHAssay: For each measurement, 200 μl of sample were incubated with 20 μl DTNB [5,5′ dithio bis(2-nitrobenzoic acid)] for 1 hour in 37° C. Final absorbance was measured at 400 nm. Similar results were obtained using the GSH-400 kit. […]
smiles,measurement,setting,value
CC(=O)NC(CS)C(N)=O (centres unmarked) [compound J],"Protection of NB cells against the toxicity of DA, L-dopa, 6-OHDA (0.1-0.25 mM) and MPP+ (0.5-2 mM)",[1],protect
same,Compound J in the brain,[2],concentration-dependent increase
same,GSH levels increase over untreated animals,GSH,up to 46%
same,Incidence and clinical severity of the disease,MOG-induced EAE,markedly reduced
same,Mice remaining disease free,"MOG-induced EAE; day 1 to 35 days post injection, n=16",15 out of the 16
same,Mean of total clinical score (0-6 scale),"MOG-induced EAE; n=16, SE",0.1+0.1
CC(=O)N[C@@H](CS)C(=O)O [N-acetyl-cysteine],lethal dose 50% (LD50),[3],"5,050 mg/kg"
"CCOC(=O)[C@H](CS)NC(C)=O [compound A, N-acetyl cysteine ethyl ester]",Level of endogenous GSH in striatum,[4],increases
